{"source": "paper PMC8881610", "about": "(Nature Communications, 2022)", "assay_in_all_cases": "cAMP accumulation assay (LANCE Ultra cAMP kit), GIPR WT, mutant or modified constructs", "type_in_all_cases": "cell-based", "set-up_in_all_cases": "acylated tirzepatide to the full-length or modified; Flag; expressed in transfected cells; host or cells: HEK293T", "key": {"[1]": {"target": "T1, GIPR (Homo sapiens, UniProt P48546, D191A/Q138A/R196A)", "T1 sequence (P48546 22-466 Q138A/D191A/R196A)": "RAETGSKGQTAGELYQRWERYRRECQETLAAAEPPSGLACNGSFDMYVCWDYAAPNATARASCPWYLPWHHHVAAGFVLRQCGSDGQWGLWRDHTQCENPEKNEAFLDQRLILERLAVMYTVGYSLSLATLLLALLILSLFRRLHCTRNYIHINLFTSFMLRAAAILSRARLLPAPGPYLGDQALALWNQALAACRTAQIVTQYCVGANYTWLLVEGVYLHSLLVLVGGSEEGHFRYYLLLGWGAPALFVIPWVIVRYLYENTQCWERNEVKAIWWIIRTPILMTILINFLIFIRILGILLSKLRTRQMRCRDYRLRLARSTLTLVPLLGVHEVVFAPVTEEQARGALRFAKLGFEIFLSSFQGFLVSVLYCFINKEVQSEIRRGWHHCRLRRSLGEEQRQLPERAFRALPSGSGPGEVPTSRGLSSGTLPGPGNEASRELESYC", "details": "GIPR Q138A/D191A/R196A, HEK293T", "how_it_was_run": "(§1)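 HEK293T cells transiently transfected with human GIPR WT or mutant constructs (pcDNA3.1), used after 24 h. The cells were stimulated with peptide agonists for 40 min at RT in HBSS with 5 mM HEPES, 0.1% BSA or casein, and 0.5 mM IBMX. cAMP was read by LANCE Ultra TR-FRET (Eu-cAMP tracer/ULight anti-cAMP, 1 h RT, 620/650 nm).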"}, "[2]": {"target": "T2, GIPR (Homo sapiens, UniProt P48546, R196A)", "T2 sequence (P48546 22-466 R196A)": "T1 sequence (P48546 22-466 Q138A/D191A/R196A) with A117Q, A170D", "details": "GIPR R196A, HEK293T", "how_it_was_run": "as §1"}, "[3]": {"target": "T3, GIPR (Homo sapiens, UniProt P48546, R370A)", "T3 sequence (P48546 22-466 R370A)": "T1 sequence (P48546 22-466 Q138A/D191A/R196A) with A117Q, A170D, A175R, R349A", "details": "HEK-293T, GIPR R370A; HEK293T", "how_it_was_run": "as §1"}, "[4]": {"details": "read-out: cAMP pEC50 (converted)"}}, "note": "Positions count from the first letter of the chain named.", "data": [{"smiles": "CCCCCCCCCCCCCCCC(=O)N[C@@H](CCC(=O)NCCCC[C@H](NC(=O)[C@H](CC(=O)O)NC(=O)[C@H](CO)NC(=O)[C@@H](NC(=O)[C@H](Cc1ccccc1)NC(=O)[C@@H](NC(=O)CNC(=O)[C@H](CCC(N)=O)NC(=O)C(C)(C)NC(=O)[C@@H](N)Cc1c[nH]cn1)[C@@H](C)O)[C@@H](C)O)C(=O)N[C@@H](CO)C(=O)N[C@@H](CCCCN)C(=O)N[C@@H](Cc1ccc(O)cc1)C(=O)N[C@@H](CC(C)C)C(=O)N[C@@H](CC(=O)O)C(=O)N[C@@H](CCC(=O)O)C(=O)N[C@@H](CCCNC(=N)N)C(=O)N[C@@H](C)C(=O)N[C@@H](C)C(=O)N[C@@H](CCC(N)=O)C(=O)N[C@@H](CC(=O)O)C(=O)N[C@@H](Cc1ccccc1)C(=O)N[C@H](C(=O)N[C@@H](CCC(N)=O)C(=O)N[C@@H](Cc1c[nH]c2ccccc12)C(=O)N[C@@H](CC(C)C)C(=O)N[C@@H](CC(C)C)C(=O)N[C@@H](CC(=O)O)C(=O)NCC(=O)NCC(=O)N1CCC[C@H]1C(=O)N[C@@H](CO)C(=O)N[C@@H](CO)C(=O)NCC(=O)N[C@@H](C)C(=O)N1CCC[C@H]1C(=O)N1CCC[C@H]1C(=O)N1CCC[C@H]1C(=O)N[C@@H](CO)C(N)=O)C(C)C)C(=O)O", "note": "[Peptide 20]", "values": [{"measurement": "EC50", "setting": "[1]; [4]", "result": 30.2, "unit": "nM"}, {"measurement": "Emax", "setting": "[1]; HEK-293T", "result": "56.3 ± 12.2", "unit": "%"}, {"measurement": "EC50", "setting": "[2]; [4]", "result": 0.0468, "unit": "nM"}, {"measurement": "Emax", "setting": "[2]; HEK-293T", "result": "98.5 ± 1.43", "unit": "%"}, {"measurement": "Emax", "setting": "[3]", "result": "71.5 ± 2.85", "unit": "%"}]}]}
